This is an account of results in patent US12275731B2, “Azaindole inhibitors of wild-type and mutant forms of LRRK2” (DANA-FARBER CANCER INSTITUTE, INC., priority 2018, dated 2025).

Common to all, as to experiment: KinomeScan profiling
What all share (type): binding

The target of one assay is PLK2 (Homo sapiens, UniProt Q9NYY3). The note with it: PLK2, 1 μM; read-out: % control. An outline of the steps:
(§1)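 Compounds were screened at 1 μM in DMSO across a 468-kinase KinomeScan panel. Binding was expressed as % control, scaled between a positive control (0%) and DMSO (100%) using luminescence signal. A value under 35% counted as active.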

The target in assay [1] is T1, JAK1(JH1domain-catalytic) (Homo sapiens, UniProt P23458).
T1 construct: JAK1(JH1domain-catalytic); purchased KinomeScan®
Conditions: read-out: % control. An outline of the steps:
as §1

A further assay concerns the target HIPK2 (Homo sapiens, UniProt Q9H2X6). The note with it: HIPK2, 1 μM; read-out: % control. Put shortly:
as §1

The target of another assay is T2, DLK (Homo sapiens, UniProt Q12852).
T2 sequence (Q12852 1-859): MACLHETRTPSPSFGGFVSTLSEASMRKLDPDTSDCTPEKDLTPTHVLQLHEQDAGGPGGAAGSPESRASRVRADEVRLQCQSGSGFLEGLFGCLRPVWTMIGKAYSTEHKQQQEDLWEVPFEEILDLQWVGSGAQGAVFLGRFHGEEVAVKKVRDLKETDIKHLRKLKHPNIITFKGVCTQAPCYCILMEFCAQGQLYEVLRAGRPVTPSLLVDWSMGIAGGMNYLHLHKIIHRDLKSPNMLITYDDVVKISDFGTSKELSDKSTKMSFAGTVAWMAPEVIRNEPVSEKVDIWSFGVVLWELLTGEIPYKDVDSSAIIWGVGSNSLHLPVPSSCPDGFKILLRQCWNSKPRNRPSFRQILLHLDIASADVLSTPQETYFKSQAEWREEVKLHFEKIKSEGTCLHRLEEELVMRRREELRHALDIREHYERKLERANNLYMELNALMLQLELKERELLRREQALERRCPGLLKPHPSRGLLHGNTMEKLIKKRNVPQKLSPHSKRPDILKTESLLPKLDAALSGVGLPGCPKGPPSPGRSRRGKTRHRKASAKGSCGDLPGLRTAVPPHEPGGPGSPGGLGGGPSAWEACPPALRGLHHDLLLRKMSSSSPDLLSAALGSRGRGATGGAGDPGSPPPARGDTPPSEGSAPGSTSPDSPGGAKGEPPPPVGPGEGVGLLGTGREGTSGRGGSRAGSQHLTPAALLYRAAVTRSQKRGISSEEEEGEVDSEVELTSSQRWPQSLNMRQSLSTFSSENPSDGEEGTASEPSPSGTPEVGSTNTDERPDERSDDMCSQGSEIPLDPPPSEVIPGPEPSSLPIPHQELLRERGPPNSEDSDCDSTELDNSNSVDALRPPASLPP
Conditions: read-out: % control. Put shortly: as §1

The target in the next assay is FES (Homo sapiens, UniProt P07332). Conditions: read-out: % control. An outline of the steps:
as §1

A further assay deals with PKN1 (Homo sapiens, UniProt Q16512). The note with it: PKN1, 1 μM; read-out: % control. Put shortly: as §1
The target in a further assay is T3, PRKD2 (Homo sapiens, UniProt Q9BZL6).
T3 sequence (Q9BZL6 1-878): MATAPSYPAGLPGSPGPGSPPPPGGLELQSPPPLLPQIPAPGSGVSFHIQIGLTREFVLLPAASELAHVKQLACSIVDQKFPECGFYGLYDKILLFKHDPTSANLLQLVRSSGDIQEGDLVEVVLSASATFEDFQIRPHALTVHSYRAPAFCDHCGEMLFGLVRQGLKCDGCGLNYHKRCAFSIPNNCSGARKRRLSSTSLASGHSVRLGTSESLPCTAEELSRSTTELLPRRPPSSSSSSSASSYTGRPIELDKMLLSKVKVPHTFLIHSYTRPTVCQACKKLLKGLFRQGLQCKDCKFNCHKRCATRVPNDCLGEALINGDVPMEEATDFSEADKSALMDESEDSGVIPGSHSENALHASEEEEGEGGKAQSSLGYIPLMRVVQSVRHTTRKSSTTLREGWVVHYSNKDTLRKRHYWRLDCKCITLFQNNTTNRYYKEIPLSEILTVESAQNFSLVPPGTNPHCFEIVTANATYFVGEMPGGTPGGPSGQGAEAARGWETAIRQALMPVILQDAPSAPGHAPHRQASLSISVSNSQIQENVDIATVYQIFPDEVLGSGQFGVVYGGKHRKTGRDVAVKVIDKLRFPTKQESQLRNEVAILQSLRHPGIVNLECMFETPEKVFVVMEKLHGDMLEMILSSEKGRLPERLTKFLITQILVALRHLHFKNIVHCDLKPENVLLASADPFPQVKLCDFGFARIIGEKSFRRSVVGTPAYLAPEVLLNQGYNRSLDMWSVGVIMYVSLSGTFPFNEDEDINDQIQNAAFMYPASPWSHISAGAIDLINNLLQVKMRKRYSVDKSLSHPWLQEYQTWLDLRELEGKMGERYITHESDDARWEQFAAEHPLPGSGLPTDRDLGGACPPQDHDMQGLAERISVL
Conditions: PRKD2, 1 μM; read-out: % control. An outline of the steps: as §1

The target in another assay is CDK4 (Homo sapiens, UniProt P11802). The note with it: CDK4, 1 μM; read-out: % control. An outline of the steps: as §1
Another assay deals with T4, JNK2 (Homo sapiens, UniProt P45984).
T4 construct: purchased KinomeScan®
Conditions: JNK2, 1 μM; read-out: % control. Put shortly: as §1

Chain of PLK2 (Q9NYY3 whole entry): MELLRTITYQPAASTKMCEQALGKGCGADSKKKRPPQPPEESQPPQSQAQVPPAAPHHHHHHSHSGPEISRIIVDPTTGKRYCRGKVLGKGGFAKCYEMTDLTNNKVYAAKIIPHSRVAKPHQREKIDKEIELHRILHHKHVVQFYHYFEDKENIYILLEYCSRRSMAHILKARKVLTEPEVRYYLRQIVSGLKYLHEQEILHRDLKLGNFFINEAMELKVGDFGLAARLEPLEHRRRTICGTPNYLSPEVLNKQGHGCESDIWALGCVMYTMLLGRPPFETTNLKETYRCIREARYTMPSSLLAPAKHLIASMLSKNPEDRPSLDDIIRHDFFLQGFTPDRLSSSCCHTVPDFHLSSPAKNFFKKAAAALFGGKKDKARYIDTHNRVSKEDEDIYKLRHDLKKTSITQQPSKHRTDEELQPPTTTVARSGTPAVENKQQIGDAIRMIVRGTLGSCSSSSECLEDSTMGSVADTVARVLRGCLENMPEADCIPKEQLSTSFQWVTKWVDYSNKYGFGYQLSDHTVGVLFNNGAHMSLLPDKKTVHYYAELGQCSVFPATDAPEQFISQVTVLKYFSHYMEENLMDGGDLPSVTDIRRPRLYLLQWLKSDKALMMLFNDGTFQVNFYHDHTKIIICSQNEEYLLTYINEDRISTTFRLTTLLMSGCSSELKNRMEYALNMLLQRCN
Chain of CDK4 (P11802 whole entry): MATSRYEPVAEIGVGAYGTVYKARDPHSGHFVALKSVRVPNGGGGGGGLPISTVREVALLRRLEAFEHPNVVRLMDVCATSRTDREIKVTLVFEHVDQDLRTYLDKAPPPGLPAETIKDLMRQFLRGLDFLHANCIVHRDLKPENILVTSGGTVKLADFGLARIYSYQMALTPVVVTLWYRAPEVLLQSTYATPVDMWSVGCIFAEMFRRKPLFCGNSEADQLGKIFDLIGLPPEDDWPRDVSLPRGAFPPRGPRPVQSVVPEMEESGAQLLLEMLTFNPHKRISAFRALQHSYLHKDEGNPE
T4 sequence (P45984 whole entry): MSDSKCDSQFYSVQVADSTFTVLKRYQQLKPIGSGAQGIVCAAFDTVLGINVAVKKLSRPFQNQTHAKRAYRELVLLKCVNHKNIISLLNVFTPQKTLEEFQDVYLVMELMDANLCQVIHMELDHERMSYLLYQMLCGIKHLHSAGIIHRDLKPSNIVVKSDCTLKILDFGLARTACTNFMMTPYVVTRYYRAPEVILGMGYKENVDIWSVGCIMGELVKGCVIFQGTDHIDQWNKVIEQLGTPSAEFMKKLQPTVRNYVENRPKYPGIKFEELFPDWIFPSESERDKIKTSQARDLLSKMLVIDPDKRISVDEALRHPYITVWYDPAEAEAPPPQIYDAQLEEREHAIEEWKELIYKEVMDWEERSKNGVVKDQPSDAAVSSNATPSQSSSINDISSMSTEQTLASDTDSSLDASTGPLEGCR
T1 sequence (P23458 875-1153 limits assumed): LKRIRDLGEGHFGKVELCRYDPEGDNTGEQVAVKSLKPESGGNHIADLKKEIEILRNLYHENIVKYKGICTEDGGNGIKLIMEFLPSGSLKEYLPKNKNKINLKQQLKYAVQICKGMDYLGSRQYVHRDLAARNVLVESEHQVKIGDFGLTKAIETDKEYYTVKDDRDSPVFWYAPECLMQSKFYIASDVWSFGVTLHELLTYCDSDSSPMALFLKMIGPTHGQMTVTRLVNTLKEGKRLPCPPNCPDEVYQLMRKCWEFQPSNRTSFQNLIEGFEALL
Chain of HIPK2 (Q9H2X6 whole entry): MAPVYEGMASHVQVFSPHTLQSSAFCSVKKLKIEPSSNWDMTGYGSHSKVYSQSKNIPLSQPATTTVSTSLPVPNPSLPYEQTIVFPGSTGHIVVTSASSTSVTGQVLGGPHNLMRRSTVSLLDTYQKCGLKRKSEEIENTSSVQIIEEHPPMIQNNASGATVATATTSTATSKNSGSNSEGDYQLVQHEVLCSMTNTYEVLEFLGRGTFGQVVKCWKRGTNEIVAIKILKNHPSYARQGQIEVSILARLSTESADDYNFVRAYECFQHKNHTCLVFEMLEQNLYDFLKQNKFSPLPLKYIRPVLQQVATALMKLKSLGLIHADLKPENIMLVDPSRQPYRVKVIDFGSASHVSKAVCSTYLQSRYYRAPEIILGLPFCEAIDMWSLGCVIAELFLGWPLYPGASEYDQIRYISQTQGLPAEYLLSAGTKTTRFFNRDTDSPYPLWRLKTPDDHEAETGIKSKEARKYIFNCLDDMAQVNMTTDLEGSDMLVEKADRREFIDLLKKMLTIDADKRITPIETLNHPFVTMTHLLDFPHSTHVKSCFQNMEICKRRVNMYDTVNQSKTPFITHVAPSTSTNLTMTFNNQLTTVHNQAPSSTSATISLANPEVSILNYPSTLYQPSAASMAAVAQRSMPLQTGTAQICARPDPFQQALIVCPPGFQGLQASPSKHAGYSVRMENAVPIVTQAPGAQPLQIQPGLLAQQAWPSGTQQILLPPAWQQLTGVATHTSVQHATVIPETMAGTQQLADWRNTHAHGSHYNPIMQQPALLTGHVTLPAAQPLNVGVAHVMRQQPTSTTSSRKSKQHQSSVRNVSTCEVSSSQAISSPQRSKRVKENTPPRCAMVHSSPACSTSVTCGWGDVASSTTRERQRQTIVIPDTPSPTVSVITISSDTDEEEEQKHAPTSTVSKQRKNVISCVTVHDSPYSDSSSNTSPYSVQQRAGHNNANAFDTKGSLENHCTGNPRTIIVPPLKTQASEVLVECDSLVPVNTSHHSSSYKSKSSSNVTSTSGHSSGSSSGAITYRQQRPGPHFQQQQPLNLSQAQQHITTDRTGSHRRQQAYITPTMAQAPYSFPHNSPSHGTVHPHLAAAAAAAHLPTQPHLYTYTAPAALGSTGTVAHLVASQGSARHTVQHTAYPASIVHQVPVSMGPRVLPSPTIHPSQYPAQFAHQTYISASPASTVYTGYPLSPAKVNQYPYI
Chain of FES (P07332 whole entry): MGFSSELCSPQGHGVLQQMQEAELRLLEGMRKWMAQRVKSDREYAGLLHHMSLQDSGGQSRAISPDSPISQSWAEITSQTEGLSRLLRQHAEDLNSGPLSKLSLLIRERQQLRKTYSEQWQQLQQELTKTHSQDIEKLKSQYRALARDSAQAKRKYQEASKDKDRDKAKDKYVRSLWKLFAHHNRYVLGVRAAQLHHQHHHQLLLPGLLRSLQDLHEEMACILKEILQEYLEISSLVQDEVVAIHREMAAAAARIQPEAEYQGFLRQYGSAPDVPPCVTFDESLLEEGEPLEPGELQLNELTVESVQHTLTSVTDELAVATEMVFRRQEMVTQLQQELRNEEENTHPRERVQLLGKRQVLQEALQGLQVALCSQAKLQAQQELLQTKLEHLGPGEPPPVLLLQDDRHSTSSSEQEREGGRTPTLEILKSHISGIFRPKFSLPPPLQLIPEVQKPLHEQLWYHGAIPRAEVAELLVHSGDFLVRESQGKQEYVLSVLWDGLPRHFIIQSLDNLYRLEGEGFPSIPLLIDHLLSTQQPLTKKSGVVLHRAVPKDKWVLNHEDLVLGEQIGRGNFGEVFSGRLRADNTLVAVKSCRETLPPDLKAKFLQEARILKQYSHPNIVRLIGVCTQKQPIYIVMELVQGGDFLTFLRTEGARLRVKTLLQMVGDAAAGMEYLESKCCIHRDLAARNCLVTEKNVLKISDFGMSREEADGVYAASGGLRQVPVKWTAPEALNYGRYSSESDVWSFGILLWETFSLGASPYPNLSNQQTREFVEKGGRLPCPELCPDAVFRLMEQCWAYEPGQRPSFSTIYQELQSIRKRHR
Chain of PKN1 (Q16512 whole entry): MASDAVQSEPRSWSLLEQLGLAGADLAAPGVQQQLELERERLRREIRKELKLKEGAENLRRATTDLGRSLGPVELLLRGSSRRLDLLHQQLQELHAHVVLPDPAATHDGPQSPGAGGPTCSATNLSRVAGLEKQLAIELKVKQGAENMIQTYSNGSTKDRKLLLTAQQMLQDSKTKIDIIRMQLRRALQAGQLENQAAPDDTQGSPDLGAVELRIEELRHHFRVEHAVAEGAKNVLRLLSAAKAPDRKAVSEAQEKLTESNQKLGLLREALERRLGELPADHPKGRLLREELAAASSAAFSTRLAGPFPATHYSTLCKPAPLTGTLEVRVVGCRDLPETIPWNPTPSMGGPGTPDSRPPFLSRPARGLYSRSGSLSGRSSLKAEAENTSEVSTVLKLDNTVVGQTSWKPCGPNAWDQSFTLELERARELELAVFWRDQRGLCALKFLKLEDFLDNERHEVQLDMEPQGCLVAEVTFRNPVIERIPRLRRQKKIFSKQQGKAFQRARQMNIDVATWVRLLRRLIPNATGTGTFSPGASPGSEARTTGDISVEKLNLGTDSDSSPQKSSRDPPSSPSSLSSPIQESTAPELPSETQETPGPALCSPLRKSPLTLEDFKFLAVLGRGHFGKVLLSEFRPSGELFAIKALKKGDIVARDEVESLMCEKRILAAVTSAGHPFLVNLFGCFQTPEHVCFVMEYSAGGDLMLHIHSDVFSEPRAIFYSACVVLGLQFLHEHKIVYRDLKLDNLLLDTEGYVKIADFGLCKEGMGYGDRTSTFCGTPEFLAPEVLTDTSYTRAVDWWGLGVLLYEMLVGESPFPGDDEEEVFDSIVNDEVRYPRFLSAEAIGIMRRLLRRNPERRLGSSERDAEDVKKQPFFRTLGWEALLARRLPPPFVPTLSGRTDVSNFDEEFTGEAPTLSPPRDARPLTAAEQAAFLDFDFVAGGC

As for `CNc1c(-c2ccc(C(=O)N3CCC(N4CCOCC4)CC3)cc2)cnc2[nH]cc(Cl)c12` [Compound 96, (4-(3-chloro-4-(methylamino)-1H-pyrrolo[2,3-b]pyridin-5-yl)phenyl)(4-morpholinopiperidin-1-yl)methanone], the remaining binding at 1 µM on PLK2 is 100%; in assay [1], 100%; on HIPK2, 74%; at DLK, 24%; at FES it was 95%; on PKN1, 95%. Besides, the remaining binding at 1 µM at PRKD2 stood at 13%; on CDK4, 98%; at JNK2, 0.85%.

Turning to `O=C(c1ccc(-c2cnc3[nH]cc(Cl)c3c2NC2CCCC2)cc1)N1CCC(N2CCOCC2)CC1` [Compound 101, (4-(3-chloro-4-(cyclopentylamino)-1H-pyrrolo[2,3-b]pyridin-5-yl)phenyl)(4-morpholinopiperidin-1-yl)methanone], the remaining binding at 1 µM at PLK2 came out at 100%; in assay [1], 90%; at HIPK2, 100%; at DLK, 65%; on FES it was 72%; at PKN1, 100%. Besides, the figures for the remaining binding at 1 µM at PRKD2, on CDK4 and on JNK2 were 59%, 100% and 8.8%, respectively.

For the compound `CNc1c(-c2cnn([C@H]3CCN(C(C)=O)C[C@@H]3F)c2)cnc2[nH]cc(Cl)c12` [Compound 77, 1-((3S,4S)-4-(4-(3-chloro-4-(methylamino)-1H-pyrrolo[2,3-b]pyridin-5-yl)-1H-pyrazol-1-yl)-3-fluoropiperidin-1-yl)ethan-1-one], the remaining binding at 1 µM on PLK2 worked out at 85%; in assay [1] it was 98%; on HIPK2 it was 81%; at DLK it was 14%; on FES, 95%; at PKN1, 100%. The remaining binding at 1 µM on PRKD2 worked out at 90%; on CDK4, 85%; at JNK2 it was 17%.
